Read-outs that look alike come from different tables or passages of the source.
What was measured:
[1] = tested on: skin homogenate of guinea pig; test: Activity for inhibiting the formation of lipid peroxides (ultraviolet-B irradiated skin homogenate, TBA method); assay type: biochemical, albino guinea pig (Hartley strain, female); details: test compound 10^-4 M; UV 9.5 mW/cm^2, 60 minutes
Method: The activity for inhibiting the formation of lipid peroxides which are increasingly formed by exposed to the ultraviolet-B radiation to the skin homogenate of guinea pig was determined by a procedure of thiobarbituric acid method (TBA method).
The activity for inhibiting the formation of lipid peroxides can be evaluated by degree of decreasing the optical absorbance of the condensate of thus formed malondialdehyde with thiobarbituric acid, by adding a test sample of the cyclic amide derivative of the present invention to the homogenate.
That is, the hairs covering in the back of an albino guinea pig (Hartley strain, female) were clipped by using an electric hair clippers under anesthesia. After the enucleation of the hair clipped portion of the skin, the subcutaneous tissue of this skin was removed in cold physiological saline. Distilled water in an amount of 9 times by weight of the skin tissue was added to this skin subcutaneous tissue, then was subjected to homogenation and centrifugation (600 g, for 5 minutes) to obtain the supernatant liquid. 5 Microliters each of test sample solutions of various concentrations was added to 0.5 ml each of the supernatant liquid, then the ultraviolet ray in the intensity of 9.5 mW/cm^2 was irradiated for 60 minutes by using fluorescent lamps (TOSHIBA FL-20SE, manufactured by Toshiba Corporation) as a light source. As to the reference sample solution, the solvent for dissolution of the test compound was used in place of the test sample solution. After ultraviolet radiation, the amount of lipid peroxide being formed in the sample solution (TBA value) was measured by TBA method (cf. Analytical Biochemistry, 1979, Vol. 95, pp. 351-358), and the inhibition rate of lipid peroxide formation shown by the test sample was calculated by the following formula: [formula]

[2] = tested on: skin erythema; test: Activity for inhibiting skin erythema caused by ultraviolet radiation; assay type: in vivo, albino guinea pig (Hartley strain, female, 7-8 week age); details: for inhibition in vivo at 3 %: Cavia porcellus, UV 1.3-1.5 mW/cm^2 for 30 minutes, measured 24 hours later; for 50% inhibitory concentration (IC50) for inhibiting the skin erythema: three concentrations within 0.1 to 10%
Method: The hairs covering in the back of albino guinea pig (Hartley strain, female, 7-8 week age) were shaved by using an electric hair clippers and a shaver. In the next day, the guinea pig was fixed in Bowlman's cage, then a light shield tape (adhesive plaster for patch test), having 4 round holes of 1.5 cm in diameter was adhered on the hair clipped portion so as to provide 4 sites (round holes) to be exposed to the ultraviolet rays. […] Each one of the test sample solutions was prepared by dissolving each test compounds in three kinds of concentrations within 0.1 to 10%, and applied.

[3] = tested on: lens samples obtained from rat; test: Activity for preventing the lens opacity (UV-irradiated cultured lens); assay type: cell-based, rat (Wistar strain, male, 6-10 week age); details: 1 h, read-out: Rate of the activity for preventing lens opacity
Method: The lens samples obtained from rat (Wistar strain, male, 6-10 week age) were placed on 24-well plate, and were cultured in DEMEM (Dulbecco's modified Eagle's medium manufactured by Nissui Pharmaceutical Co., Ltd.) at 37° C. overnight, a 5% CO2 environment was used. Under dissecting microscope observation, the lens samples having transparency were only selected to use the test. Thus selected lens samples were transferred to midium (1 ml) in which the test compound was dissolved. (As to the reference test, the medium without containing the test compound was used.) The ultraviolet rays in the intensity of 8.8 mW/cm^2 was irradiated for 60 minutes by using a fluorescent lamp (TOSHIBA FL-20SE) to the lens samples. After the irradiation, the medium was replaced to new medium containing the test compound and further cultured overnight. The medium without the test compound was replaced everyday during 3 days. By using a dissecting microscope, opacity of the lens samples were observed. The degrees of opacity of the lens samples was determined by deviding the field of vision into 8 fields as follows: Score 0: transparent; Score 1: some loss of transparency; and Score 2: completely opaque. Rate of activity for preventing the lens opacity was calculated from the following formula: [formula]

[4] = 3% concentration of test compound, 10 μl topical, read-out: Rate of activity for inhibiting the skin erythema
[5] = test compound 1 x 10^-4 M, UV 8.8 mW/cm^2, 60 minutes

Compound: C=CCc1cc2c(c(CC=C)c1O)CCC(=O)N2C [Example 40]
- Inhibition rate of lipid peroxide formation [1]: 84%
- inhibition in vivo at 3 % [2, 4]: 23%
- 50% inhibitory concentration (IC50) for inhibiting the skin erythema ([2]; topical): 5.6 concentration in %

Compound: C=CCc1cc2c(c(CC=C)c1O)CCC(=O)N2CC(C)C [Example 41]
- Inhibition rate of lipid peroxide formation [1]: 96%
- inhibition in vivo at 3 % [2, 4]: 57%
- 50% inhibitory concentration (IC50) for inhibiting the skin erythema ([2]; topical): 2.0 concentration in %
- inhibition at 100 µM [3, 5]: 55%

Compound: C=CCc1cc2c(c(CC=C)c1O)CCC(=O)N2CC1CCCCC1 [Example 44]
- Inhibition rate of lipid peroxide formation [1]: 100%
- inhibition in vivo at 3 % [2, 4]: 63%
- 50% inhibitory concentration (IC50) for inhibiting the skin erythema ([2]; topical): 1.6 concentration in %

Compound: C=CCc1cc2c(c(CC=C)c1O)CCC(=O)N2C/C=C(\C)CCC=C(C)C [Example 48]
- Inhibition rate of lipid peroxide formation [1]: 95%
- inhibition in vivo at 3 % [2, 4]: 37%

Compound: C=CCOc1cccc(CN2C(=O)CCc3c2cc(CC=C)c(O)c3CC=C)c1 [Example 50]
- Inhibition rate of lipid peroxide formation [1]: 89%
- inhibition in vivo at 3 % [2, 4]: 36%

Compound: C=CCc1cc2c(c(CC=C)c1O)CCC(=O)N2c1ccc(OC)c(OC)c1 [Example 60]
- Inhibition rate of lipid peroxide formation [1]: 83%
- inhibition in vivo at 3 % [2, 4]: 27%

Compound: C=CCc1c(O)ccc2c1CCC(=O)N2CCCCCCCCCCO [Example 63]
- Inhibition rate of lipid peroxide formation [1]: 81%
- inhibition in vivo at 3 % [2, 4]: 35%
- 50% inhibitory concentration (IC50) for inhibiting the skin erythema ([2]; topical): 6.5 concentration in %

Compound: C=CCc1cc2c(c(CC=C)c1O)CCC(=O)N2CCCN.Cl [Example 67, 1-(3-aminopropyl)-5,7-diallyl-3,4-dihydro-6-hydroxy-2(1H)-quinolinone hydrochloride]
- Inhibition rate of lipid peroxide formation [1]: 75%
- inhibition in vivo at 3 % [2, 4]: 31%
- inhibition at 100 µM [3, 5]: 40%

Compound: C=CCc1cc2c(c(CC=C)c1O)CCC(=O)N2CCCNC(N)=O [Example 68, 5,7-diallyl-3,4-dihydro-6-hydroxy-1-(3-ureidopropyl)-2(1H)-quinolinone]
- Inhibition rate of lipid peroxide formation [1]: 68%
- inhibition in vivo at 3 % [2, 4]: 43%

Compound: C=CCc1cc2c(c(CC=C)c1O)CCC(=O)N2CC(=O)O [Example 76, 1-(carboxymethyl)-5,7-diallyl-3,4-dihydro-6-hydroxy-2(1H)-quinolinone]
- Inhibition rate of lipid peroxide formation [1]: 68%
- inhibition in vivo at 3 % [2, 4]: 50%
- 50% inhibitory concentration (IC50) for inhibiting the skin erythema ([2]; topical): 3.1 concentration in %

Compound: C=CCc1cc2c(c(CC=C)c1O)CCC(=O)N2C(C)C [Example 98]
- inhibition at 100 µM [3, 5]: 45%

Compound: C=CCc1cc2c(c(CC=C)c1O)CCC(=O)N2CCCCCCCC [Example 101]
- inhibition in vivo at 3 % [2, 4]: 37%
- inhibition at 100 µM [3, 5]: 55%

Compound: C=CCc1cc2c(c(CC=C)c1O)CCC(=O)N2CCOC(C)=O [Example 103, 1-(2-Acetyloxyethyl)-5,7-diallyl-3,4-dihydro-6-hydroxy-2(1H)-quinolinone]
- inhibition at 100 µM [3, 5]: 57%

Compound: C=CCc1cc2c(c(CC=C)c1O)CCC(=O)N2CCO [Example 109, 5,7-diallyl-3,4-dihydro-6-hydroxy-1-(2-hydroxyethyl)-2(1H)-quinolinone]
- inhibition at 100 µM [3, 5]: 66%

Compound: C=CCc1cc2c(c(CC=C)c1O)CCC(=O)N2C(C)C(=O)O (stereo not drawn) [Example 115, Sodium 2-(5,7-Diallyl-6-hydroxy-1,2,3,4-tetrahydro-2-oxoquinolin-1-yl)propionate]
- inhibition in vivo at 3 % ([2]; topical, 24 h, read-out: Rate of activity for inhibiting the skin erythema, 3% concentration of test compound, 10 μl topical): 33%
- inhibition at 100 µM [3]: 63%

Compound: O=C1O[C@H]([C@@H](O)CO)C(O)=C1O [Vitamin C, reference compound]
- inhibition at 100 µM [3, 5]: -11%
- inhibition at 1000 µM ([3]; test compound 10 x 10^-4 M, UV 8.8 mW/cm^2, 60 minutes): 84%

Reference: patent publication US5786367A, “Cyclic amide derivatives” (Otsuka Pharmaceutical Co., Ltd., priority 1994, dated 1998)
